For this series, the system named is G. mellonella larvae. As to the kind of experiment: LDH cytotoxicity assay of larval haemolymph. In kind it is in vivo, Galleria mellonella. As to the method:
Galleria mellonella larvae were grouped 40 per group for in vivo antimicrobial testing of Lfcin (17–30) as follows: group I (MDR-EAEC infection control), groups II and III (infection + treatment groups), group IV (PBS control), and group V [Lfcin(17–30) control]. Optimized LD50 dose of MDR-EAEC (a cocktail of three strains) was administered to larvae of groups I to III, while MIC dose of Lfcin (17–30) and Meropenem was administered 3 h post-infection (pi) in groups II and III, respectively. Larval group IV was injected with sterile PBS, whereas MIC dose of Lfcin (17–30) was administered in group V.
The larvae were then observed for their survival rate, melanization (Supplementary Information S7), MDR-EAEC counts (Supplementary Information S8), hemocyte density (Supplementary Information S9) ([Wand et al., 2013]), lactate dehydrogenase (LDH) cytotoxicity assay (Supplementary Information S10) ([Gibreel and Upton, 2013]), and histopathology (Supplementary Information S11) ([Perdoni et al., 2014]), at an interval of 6 h till 24 h, followed by 24-h interval up to 120 h pi.
G. mellonella (n=3 larvae per group) were analysed for the production of LDH, as a marker of cell damage, at an interval of 6 h pi for 24 h, followed by 24 h interval till 96 h pi using QuantiChrom LDH cytotoxicity assay kit, according to the manufacturer’s instructions. The positive and negative controls used in this study were […]. The absorbance was read using ELISA plate reader at 500 nm; the haemolymph from untreated larvae served as background control and the cytotoxicity was calculated as, Cytotoxicity (%) = (ODSample - ODControl)/ (ODTotal Lysis - ODControl) x 100, wherein, sample is the control absorbance of treated cell; control is the experimental absorbance of the untreated cell control and total lysis is the absorbance of Triton X-100 treated cells.

The record followed here is article PMC7531601, “Exploiting Lactoferricin (17–30) as a Potential Antimicrobial and Antibiofilm Candidate Against Multi-Drug-Resistant Enteroaggregative Escherichia coli” (Frontiers in Microbiology, 2020).

Ends that are not written are not given here.

With FKCRRWQWRMKKLG [Lfcin (17–30)], the LDH cytotoxicity entry reads like this: (infected larvae treated 3 h pi) “cytotoxicity remained increased up to 48 h pi”; (uninoculated larvae treated with MIC dose) “significantly increased cytotoxicity was observed at 6 to 18 h pi”.
